Assay results published in patent US7674881B2, “Convergent synthesis of proteins by kinetically controlled ligation” (The University of Chicago, priority 2005, dated 2010).
Like-named read-outs stand apart in the source and are kept apart here.

Columns and labels:
[1] = physchem
[2] = pKa of thiol catalysts (Table 3)
[3] = Solubility of thiol catalysts at pH 7 (Table 3)

pKa [1] | Solubility at pH 7 | SMILES | pKa [2] | Solubility at pH 7 [3]
8.86 | Very soluble | Nc1ccc(S)cc1 [4-aminothiophenol] |  | 
6.8 | Soluble | Oc1ccc(S)cc1 [4-mercaptophenol] |  | 
 | Very soluble | O=C(O)Cc1ccc(S)cc1 [4-mercaptophenylacetic acid] |  | 
6.8 | Sparingly soluble | Cc1ccc(S)cc1 [4-methylthiophenol] |  | 
 | Soluble | O=[N+]([O-])c1ccc(S)cc1 [4-nitrothiophenol] |  | 

More lines, now with the values behind:

SMILES | pKa [1] | Solubility at pH 7 | pKa [2] | Solubility at pH 7 [3]
Sc1ccccn1 [2-mercaptopyridine] | -1.07 | Soluble |  | 
Sc1ncccn1 [2-mercaptopyrimidine] | 2.03 | Very soluble |  | 
O=C(O)c1cccc(S)c1 [3-mercaptobenzoic acid] | 5.78 | Very soluble |  | 
Oc1cccc(S)c1 [3-mercaptophenol] | 6.5 | Very soluble |  | 
Sc1ccc(Cl)cc1 [4-chlorothiophenol] |  |  | 6.11 | Sparingly soluble
COc1ccc(S)cc1 [4-methoxythiophenol] | 6.75 | Slightly soluble |  | 
SCc1ccccc1 [Benzyl mercaptan] |  |  | 9.67 | Sparingly soluble
O=S(=O)([O-])CCS.[Na+] [MESNA, sodium 2-mercaptoethanesulfonate] | 9.08 | Very soluble |  | 
Sc1ccccc1 [Thiophenol] |  | Slightly soluble |  | 
